Values of other authors, collected in publication PMC7179450, “Primary Human Hepatocytes, But not HepG2 or Balb/c 3T3 Cells, Efficiently Metabolize Salinomycin and Are Resistant to Its Cytotoxicity” (Molecules, 2020).
Read-outs that look alike come from different tables or passages of the source.

Tested on: all tested cell models
Design: method as in PMID 30012479
Conditions: cited from earlier work

Row | SMILES | cytotoxicity at tested concentrations (prednisolone 1 µg/mL) | cytotoxicity at tested concentrations (tiamulin 1 or 10 µg/mL)
1 | C[C@]12C=CC(=O)C=C1CC[C@@H]1[C@@H]2[C@@H](O)C[C@@]2(C)[C@H]1CC[C@]2(O)C(=O)CO [prednisolone] | non-cytotoxic | –
2 | C=C[C@]1(C)C[C@@H](OC(=O)CSCCN(CC)CC)[C@]2(C)[C@H](C)CC[C@]3(CCC(=O)[C@H]32)[C@@H](C)[C@@H]1O [tiamulin] | – | non-cytotoxic
